Read-outs that look alike come from different tables or passages of the source.
System: ATF4 translation
Assay: ATF4 Nano Luciferase reporter integrated stress response (ISR) assay in H4 ATF4-NLuc cells
Type: cell-based, human
Settings: H4 ATF4-NLuc (clone 17) cells, compound 30 minutes, then sodium arsenite for 6 additional hours, luminescence readout
Text: Cellular stress leads to activation of the integrated stress response pathway through one of four eukaryotic initiation factor 2a kinases and halts global translation, while allowing for the translation of select transcripts like ATF4 (activating transcription factor 4) that are important for the response to cellular stress. During normal conditions, small open reading frames (ORFs) in the 5′ UTR of ATF4 occupy the ribosome and prevent translation of the coding sequence of ATF4. During stress conditions however, the ribosome scans past these upstream ORFs and preferentially begins translation at the coding sequence of ATF4. In this way, the translation, and thus protein level of ATF4 is a readout of ISR pathway activation. Thus, a fusion of the uORFs and the beginning of the coding sequence of ATF to a common cellular reporter like nano-luciferase allows for a sensitive and high-throughput readout of ISR pathway activity.
Compounds as provided herein were tested in the following assay. The ATF4 Nano Luciferase reporter was constructed by fusing the human full length 5′ untranslated region (5′-UTR) and a small portion of the coding sequence of the ATF4 gene upstream of the Nano Luciferase (NLuc) coding sequence lacking it's start codon. Specifically, nucleotides +1 through +364 (relative to the transcriptional start site) of ATF4 transcript variant 2 (NCBI NM_182810.2) flanked 5′ by EcoRI and 3′ by BamHI restriction enzyme sites were synthesized and cloned into the EcoRI/BamHI cloning sites of pLVX-EF1a-IRES-Puro lentivirus vector (Clontech). Lentiviral particles were produced with Lenti-X single shots (VSV-G, Clontech) according to the manufacturer's instructions and used to transduce a human H4 neuroglioma cell line (ATCC HTB-148). H4 cells were selected with 1.25 μg/mL Puromycin, and clonal cell lines generated by limiting dilution. We utilized this cell line to generate an integrated stress response (ISR) assay to evaluate the activity of ISR pathway inhibitors via luminescence readout. The H4 ATF4-NLuc (clone 17) cell line is plated at a density of […] in 96-well or 384-well respectively in DMEM+[…]. 24-hours later test compounds diluted in dimethyl sulfoxide (DMSO) are added for 30 minutes at 37° C., followed by ISR pathway activation with […] sodium arsenite aqueous solution for 6 additional hours. Nano Glo luciferase reagent (N1150, Promega) is added according to manufacturer instructions and the luminescence signal (corresponding to the level of ATF4 translation and thus ISR pathway activation) is read with a standard plate reader with luminescence detection capabilities. […] In the tables below, activity of the tested compounds is provided, and in Table 3 as follows: […]; ++=IC50 1-10 μM; +=IC50>10 μM.

[1] = Homo sapiens, 0.5 h, read-out: Activity
[2] = Homo sapiens, 0.5 h, read-out: Biological Example 1 (ATF4 translation, IC50 nM)

Compound | IC50 [1] | IC50 [2] | IC50 (read-out: Activity)
O=C(COc1ccccc1)N[C@@H]1CC[C@@H](c2nnc([C@H]3C[C@@H](OC(F)(F)F)C3)o2)OC1 [Example 27, 2-phenoxy-N-[(3R,6S)-6-[5-[3-cis-(trifluoromethoxy)cyclobutyl]-1,3,4-oxadiazol-2-yl]tetrahydropyran-3-yl]acetamide] | < 1000 nM |  | 
O=C(COc1ccc(Cl)c(F)c1)N[C@@H]1CC[C@@H](c2nnc(COC(F)(F)F)o2)OC1 [Example 30, 2-(4-chloro-3-fluorophenoxy)-N-((3R,6S)-6-(5-((trifluoromethoxy)methyl)-1,3,4-oxadiazol-2-yl)tetrahydro-2H-pyran-3-yl)acetamide] | < 1000 nM |  | 
O=C(COc1ccc(Cl)cc1F)N[C@@H]1CC[C@@H](c2nnc([C@H]3C[C@@H](OC(F)(F)F)C3)o2)OC1 [Example 31, 2-(4-chloro-2-fluoro-phenoxy)-N-[(3R,6S)-6-[5-[3-cis-(trifluoromethoxy)cyclobutyl]-1,3,4-oxadiazol-2-yl]tetrahydropyran-3-yl]acetamide] | < 1000 nM |  | 
O=C(N[C@@H]1CC[C@@H](c2nnc(C3CC(OC(F)(F)F)C3)o2)OC1)C1CCc2cc(Cl)ccc2O1 (stereo partly shown) [Example 45] | < 1000 nM |  | 
O=C(COc1ccc(C(F)(F)F)cc1)N[C@H]1CO[C@H](c2nnc(C3CC(OC(F)(F)F)C3)o2)CC1(F)F (stereo partly drawn) [Example 61, N-((3S,6S)-4,4-difluoro-6-(5-(3-cis-(trifluoromethoxy)cyclobutyl)-1,3,4-oxadiazol-2-yl)tetrahydro-2H-pyran-3-yl)-2-(4-(trifluoromethyl)phenoxy)acetamide] | < 1000 nM | 14.4 nM | 
O=C(N[C@H]1CO[C@H](c2nnc(C3CC(OC(F)(F)F)C3)o2)CC1(F)F)c1ccc2cc(F)ccc2n1 (stereo partly drawn) [Example 59, N-((3S,6S)-4,4-difluoro-6-(5-(3-cis-(trifluoromethoxy)cyclobutyl)-1,3,4-oxadiazol-2-yl)tetrahydro-2H-pyran-3-yl)-6-fluoroquinoline-2-carboxamide] | < 1000 nM |  | 
O=C(COc1ccc(Cl)c(F)c1)NC12CCC(c3nnc([C@H]4C[C@@H](OC(F)(F)F)C4)o3)(CC1)OC2 [Example 21, 2-(4-chloro-3-fluoro-phenoxy)-N-[1-[5-[3-cis-(trifluoromethoxy)cyclobutyl]-1,3,4-oxadiazol-2-yl]-2-oxabicyclo[2.2.2]octan-4-yl]acetamide] | < 1000 nM | 4 nM | 
O=C(COc1ccc(Cl)cc1)N[C@@H]1CC[C@@H](C(O)COC2CC(OC(F)(F)F)C2)OC1 (single isomer, unassigned) [Example 63] | < 1000 nM | 3.9 nM | 
O=C(COC1CC(OC(F)(F)F)C1)N[C@@H]1CC[C@@H](c2cc(-c3ccc(Cl)cc3)no2)OC1 (stereo partly shown) [Example 54] | < 1000 nM |  | 
CC(O)(COC1CC(OC(F)(F)F)C1)[C@@H]1CC[C@@H](NC(=O)COc2ccc(Cl)cc2)CO1 (single isomer, unassigned) [Example 72] |  |  | < 1000 nM
O=C(COc1ccc(F)cc1)N[C@H]1CO[C@H](c2nnc([C@H]3C[C@@H](OC(F)(F)F)C3)o2)CC1(F)F [Example 35, N-[(3S,6S)-4,4-difluoro-6-[5-[3-cis-(trifluoromethoxy)cyclobutyl]-1,3,4-oxadiazol-2-yl]tetrahydropyran-3-yl]-2-(4-fluorophenoxy)acetamide] | < 1000 nM |  | 
O=C(N[C@@H]1CC[C@@H](c2nnc([C@H]3C[C@@H](OC(F)(F)F)C3)o2)OC1)[C@H]1C[C@@H]1COC(F)(F)F [Example 4, (1R,2R)—N-[(3R,6S)-6-[5-[3-cis-(trifluoromethoxy)cyclobutyl]-1,3,4-oxadiazol-2-yl]tetrahydropyran-3-yl]-2-(trifluoromethoxymethyl)cyclopropanecarboxamide] | 1000 to 10000 nM |  | 
O=C(COc1ccc(Cl)c(F)c1)N[C@@H]1CC[C@@H](c2nc([C@H]3C[C@@H](OC(F)(F)F)C3)no2)OC1 [Example 58, 2-(4-chloro-3-fluorophenoxy)-N-((3R,6S)-6-(3-(3-cis-(trifluoromethoxy)cyclobutyl)-1,2,4-oxadiazol-5-yl)tetrahydro-2H-pyran-3-yl)acetamide] | < 1000 nM | 3.7 nM | 
O=C(COc1ccc(Cl)c(F)c1)N[C@@H]1CC[C@@H](c2nnc([C@H]3C[C@@H](OC(F)(F)F)C3)o2)OC1 [Example 1, 2-(4-chloro-3-fluoro-phenoxy)-N-[(3R,6S)-6-[5-[3-cis-(trifluoromethoxy)cyclobutyl]-1,3,4-oxadiazol-2-yl]tetrahydropyran-3-yl]acetamide] | < 1000 nM |  | 
O=C(COc1ccc(F)c(F)c1)N[C@@H]1CC[C@@H](c2nnc([C@H]3C[C@@H](OC(F)(F)F)C3)o2)OC1 [Example 24, 2-(3,4-difluorophenoxy)-N-((3R,6S)-6-(5-(3-cis-(trifluoromethoxy)cyclobutyl)-1,3,4-oxadiazol-2-yl)tetrahydro-2H-pyran-3-yl)acetamide] | < 1000 nM | 10.5 nM | 
O=C(N[C@@H]1CC[C@@H](c2nnc(C3CC(OC(F)(F)F)C3)o2)OC1)N1CCC(OC(F)(F)F)C1 (stereo partly shown) [Example 51] | < 1000 nM |  | 
Cc1ccc(OCC(=O)N[C@@H]2CC[C@@H](c3nnc([C@H]4C[C@@H](OC(F)(F)F)C4)o3)OC2)cc1 [Example 28, 2-(4-methylphenoxy)-N-[(3R,6S)-6-[5-[3-cis-(trifluoromethoxy)cyclobutyl]-1,3,4-oxadiazol-2-yl]tetrahydropyran-3-yl]acetamide] | < 1000 nM |  | 
O=C(COC1CC(OC(F)(F)F)C1)N[C@@H]1CC[C@@H](c2nnc([C@H]3C[C@@H](OC(F)(F)F)C3)o2)OC1 (stereo partly drawn) [Example 3, 2-[3-cis-(trifluoromethoxy)cyclobutoxy]-N-[(3R,6S)-6-[5-[(cis)-3-(trifluoromethoxy)cyclobutyl]-1,3,4-oxadiazol-2-yl]tetrahydropyran-3-yl]acetamide] | < 1000 nM |  | 
CC(O)(COC1CC(OC(F)(F)F)C1)[C@@H]1CC[C@@H](NC(=O)COc2ccc(Cl)cc2)CO1 (single isomer, unassigned) [Example 71] | < 1000 nM |  | 
O=C(N[C@@H]1CC[C@@H](c2nnc(C3CC(OC(F)(F)F)C3)o2)OC1)[C@H]1CCc2cc(F)ccc2O1 (single isomer, unassigned) [Example 65] | < 1000 nM | 8.5 nM | 
O=C(COc1ccc(F)c(F)c1)NC12CCC(c3nnc([C@H]4C[C@@H](OC(F)(F)F)C4)o3)(CC1)OC2 [Example 25, 2-(3,4-difluorophenoxy)-N-[1-[5-[3-cis-(trifluoromethoxy)cyclobutyl]-1,3,4-oxadiazol-2-yl]-2-oxabicyclo[2.2.2]octan-4-yl]acetamide] | < 1000 nM |  | 
O=C(N[C@@H]1CC[C@@H](c2nnc(C3CC(OC(F)(F)F)C3)o2)OC1)c1cc2ccc(Cl)cc2cn1 (stereo partly drawn) [Example 44, 7-chloro-N-((3R,6S)-6-(5-(3-cis-(trifluoromethoxy)cyclobutyl)-1,3,4-oxadiazol-2-yl)tetrahydro-2H-pyran-3-yl)isoquinoline-3-carboxamide] | < 1000 nM |  | 
O=C(COc1ccc(Cl)cc1)N[C@H]1CO[C@H](c2nnc([C@H]3C[C@@H](OC(F)(F)F)C3)o2)CC1(F)F [Example 41, N-[(3S,6S)-4,4-difluoro-6-[5-[3-cis-(trifluoromethoxy)cyclobutyl]-1,3,4-oxadiazol-2-yl]tetrahydropyran-3-yl]-2-(4-chlorophenoxy)acetamide] | < 1000 nM | 13.5 nM | 
O=C(COc1ccc(Cl)c(F)c1)N[C@@H]1CC[C@@H](c2nnc(C3C[C@H]3COC(F)(F)F)o2)OC1 (single isomer, unassigned) [Example 69] | < 1000 nM |  | 
